Experimental data as given in PubChem BioAssay AID467 (The Scripps Research Institute Molecular Screening Center, 2006).
The source made the active and inactive calls. The rule behind the calls is not given here.

Tested on: parental cell line counter screen, S1P1 agonist assay readout
Assay: signal in parental cells, counter-screen for S1P1 agonist project (AID 467);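 note: agonist potency measured against forskolin stimulation plus an EC20 level of SEW2871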

Row | Compound | EC50
1 | CCN(CC)c1ccc(-n2c(C)c(C(C)=O)c(C(C)=O)c2C)cc1 | > 95.1 µM (inactive)
2 | CCCCc1ccc(C2C(C#N)=C(N)SC(N)=C2C#N)s1 | 16.8 µM (inactive)
3 | COC(=O)CS(=O)(=O)c1nnc([C@H](Cc2ccccc2)NC(=O)OC(C)(C)C)o1 | 3.68 µM
4 | Cc1ccc(OCCn2cc(/C(N)=N/O)c3ccccc32)cc1C | 17 µM (inactive)
5 | Cc1ccc(N2C(=O)c3cccc4c(N5CCN(C)CC5)ccc(c34)C2=O)c2cccnc12 | > 95.1 µM (inactive)
6 | Cc1noc(/C=C/N(C)C)c1S(=O)(=O)N1CCc2ccccc21 | > 95.1 µM (inactive)
7 | CCCCNc1cc(C)nc(NCc2ccccc2)n1 | 12.8 µM (inactive)
8 | COc1cc(-c2noc(C3CCCN(S(=O)(=O)c4cccc(Cl)c4)C3)n2)cc(OC)c1OC (stereo not given) | > 95.1 µM (inactive)
9 | O=S(=O)(NCc1cn2ccsc2n1)c1ccc(Oc2ccccc2)cc1 | 45.3 µM (inactive)
10 | COc1cccc(-c2nnc3sc(C4CCCCC4)nn23)c1 | 44.2 µM (inactive)
11 | COc1cccc(-c2cc(C(=O)Nc3ccccc3SC)no2)c1 | > 95.1 µM (inactive)
12 | Cc1nn(Cc2ccc(Cl)c(Cl)c2)c(C)c1NC(=O)c1cc(CC(C)C)on1 | 23.8 µM (inactive)
13 | CCN(CC)C(=O)Oc1ccc2c(=O)c(-c3ccccc3)coc2c1 | > 95.1 µM (inactive)
14 | CC1CCc2nc(NC(=O)CSc3nc4ccccc4o3)sc2C1 (stereo not given) | > 95.1 µM (inactive)
15 | Clc1ccc(-c2nc3nc4ccccc4nc3n2Cc2ccco2)cc1 | > 95.1 µM (inactive)
16 | CC(C)c1ccc(OCc2nc(-c3ccccn3)no2)c(Br)c1 | 63 µM (inactive)
17 | Clc1ccc(OCc2nc(-c3ccncc3)no2)c(Br)c1 | > 30 µM (inactive)
18 | Cc1ccc(O)c(NC(=O)CCC2CCCCC2)c1 | 50.1 µM (inactive)
19 | CCN(C1CCCCC1)S(=O)(=O)c1ccc(S(=O)(=O)NCc2ccncc2)cc1 | 76.5 µM (inactive)
20 | CCC(=NCCOc1ccc(Cl)cc1)c1c(O)n(C)c(=O)n(C)c1=O | 18.9 µM (inactive)
21 | O=C(Nc1ccc(S(=O)(=O)NCc2ccco2)cc1)c1ccc2ccccc2n1 | > 95.1 µM (inactive)
22 | CCOC(=O)Cc1csc(NC(=O)c2ccc(Br)s2)n1 | 47.9 µM (inactive)
23 | O=C1C2CCCN2C(c2cccnc2)N1c1cccc(Cl)c1 (stereo not given) | > 95.1 µM (inactive)
24 | Cc1nc2ccccc2c2oc(C(=O)NCC3COc4ccccc4O3)cc12 (stereo not given) | 20.2 µM (inactive)

Row | Compound | EC50
25 | COc1ccc(-c2cn3c(C)c(C(=O)Nc4ccncc4)sc3n2)cc1 | > 95.1 µM (inactive)
26 | O=S(=O)(C/C(=C/CO)S(=O)(=O)c1ccccc1)c1ccccc1 | 2.21 µM
27 | O=C(C1CC1)N1CCc2cc(S(=O)(=O)NCC3COc4ccccc4O3)ccc21 (stereo not given) | > 30 µM (inactive)
28 | COc1ccc(-c2noc(-c3ccccc3F)n2)cc1 | > 95.1 µM (inactive)
29 | COCCN(C(=O)c1ccccc1)c1nnc(-c2cccnc2)s1 | > 95.1 µM (inactive)
30 | Cc1cc(C(=O)COC(=O)c2csc3c2CCCC3)c(C)n1C | > 95.1 µM (inactive)
31 | Nc1ccc(N2CCOCC2)c(Cl)c1 | > 95.1 µM (inactive)
32 | CC1=C(/C=C/C(C)=C/C=C/C(C)=C/C(=O)O)C(C)(C)CCC1 | > 95.1 µM (inactive)
33 | Cc1[nH]nc2c1C1(C(=O)N(Cc3ccc(Cl)cc3)c3ccccc31)C(C#N)=C(N)O2 (stereo not given) | > 30 µM (inactive)
34 | Cc1ccc(OCc2nc(-c3ccccc3)no2)c(C)c1 | > 95.1 µM (inactive)
35 | O=C(Nc1ccc(C(F)(F)F)cc1)C1CCCN1S(=O)(=O)c1cccc2cccnc12 (stereo not given) | > 30 µM (inactive)
36 | Cc1oc(-c2ccccc2)nc1Cn1cccc1C1=NC(c2ccccc2)CO1 (stereo not given) | > 95.1 µM (inactive)
37 | Oc1ccc(N2CCN(c3ncnc4sc5c(c34)CCC5)CC2)cc1 | > 95.1 µM (inactive)
38 | CN(Cc1cccs1)c1ncnc2sccc12 | > 30 µM (inactive)
39 | CC(C)(C)OC(=O)N[C@@H](Cc1ccccc1)c1nnc(S(=O)(=O)Cc2cccc(F)c2)o1 | 2.63 µM
40 | Cc1cccc(-n2ncc3c(N(C)C4CCCCC4)ncnc32)c1 | > 95.1 µM (inactive)
41 | CCc1ccc2c(COC(=O)c3n[nH]c4ccccc34)cc(=O)oc2c1 | > 95.1 µM (inactive)
42 | CCOc1ccc(C(C)=O)cc1N1C(=O)C2C3C=CC(O3)C2C1=O (stereo not given) | 4.31 µM
43 | COc1cc2c(cc1OC)C(C)N(C(=O)c1cc3ccccc3o1)CC2 (stereo not given) | > 95.1 µM (inactive)
44 | O=C(NCc1ccco1)C1CCN(C(=O)c2cc3sccc3n2Cc2ccc(Cl)cc2)CC1 | 22.4 µM (inactive)
45 | Cc1noc(C)c1S(=O)(=O)N(CC(=O)Nc1ccc2c(c1)OCO2)c1ccc(C(C)C)cc1 | > 95.1 µM (inactive)
46 | CN(C)c1ccnc2sc3c(=O)n(Cc4ccccc4)cnc3c12 | > 95.1 µM (inactive)
47 | CC1=C(C(=O)OCc2ccc3c(c2)OCO3)C(c2ccccc2)NC(=O)N1 (stereo not given) | > 10 µM (inactive)
48 | CCCC(=O)c1ccc(N2CCN(C(=O)c3ccccc3Br)CC2)c(F)c1 | 28.2 µM (inactive)

Row | Compound | EC50
49 | Cc1ccc(-n2c(C)cc(C(=O)CSc3nnnn3C)c2C)cc1 | > 95.1 µM (inactive)
50 | Cc1cccc(-c2nc(CSCC(=O)N3CCN(Cc4ccc5c(c4)OCO5)CC3)c(C)o2)c1 | 30.5 µM (inactive)
51 | CCOc1ccc(-c2nc(-c3ccncc3)no2)cc1OCC | > 95.1 µM (inactive)
52 | CCOC(=O)Nc1ccc2c(c1)N(C(=O)CCN(C)C)c1ccccc1S2 | > 10 µM (inactive)
53 | CCN(CC)C(=O)C1CCN(S(=O)(=O)c2ccc3oc4ccccc4c3c2)CC1 | > 95.1 µM (inactive)
54 | O=C(CSc1nnc(Cc2csc(Nc3cccc(Cl)c3)n2)o1)N1CCc2ccccc21 | > 95.1 µM (inactive)
55 | CCCC(=O)N1CCN(c2ccc(NC(=O)c3cc4ccccc4o3)cc2Cl)CC1 | 10.8 µM (inactive)
56 | CC(=O)c1ccc(NC(=O)N2CCN(c3cccc(Cl)c3)CC2)cc1 | > 30 µM (inactive)
57 | Cc1ccc(Cl)cc1N1CCN(C(=O)COc2ccc(S(=O)(=O)NC(C)C)cc2)CC1 | 30 µM (inactive)
58 | Cc1cc(C(=O)CSc2nnc(-c3cccnc3)n2-c2ccccc2F)c(C)n1C | > 95.1 µM (inactive)
59 | c1csc(CCNc2ncnc3sc4c(c23)CCC4)c1 | 20.3 µM (inactive)
60 | CCOc1cc(C2NCc3ccccc3-n3cccc32)ccc1O (stereo not given) | > 95.1 µM (inactive)
61 | O=C(Nc1nccs1)c1ccc(S(=O)(=O)NCC2CCCCC2)cc1 | > 30 µM (inactive)
62 | CC(C)Cn1c(=O)c(C(=O)Nc2ccccc2S(N)(=O)=O)c(O)c2ccccc21 | 16.3 µM (inactive)
63 | CC(=O)c1c(C)[nH]c(C(=O)OCCCCN2C(=O)c3ccccc3C2=O)c1C | > 10 µM (inactive)
64 | CC1Cc2ccccc2N1c1ncnc2nc[nH]c12 (stereo not given) | 11.4 µM (inactive)
65 | COc1ccc(-n2c(C)cc(C(=O)CSc3nnc(-c4cccs4)o3)c2C)cc1 | 32.3 µM (inactive)
66 | CCOc1ccc(-c2nc(-c3ccccc3C)no2)cc1 | > 95.1 µM (inactive)
67 | Clc1ccc(OCc2nnc(SCc3nc4ccccc4[nH]3)n2Cc2ccco2)cc1 | 36.4 µM (inactive)
68 | O=C(Nc1cccc(C(F)(F)F)c1)N1CCC(c2nc(-c3ccc(F)cc3)no2)CC1 | 14.4 µM (inactive)
69 | COc1ccc(S(=O)(=O)N2CCN(c3ccc(C)cc3C)CC2)cc1OC | 28.4 µM (inactive)
70 | CCOc1ccc(C2CC(c3cccc(OC)c3OC)n3nnnc3N2)cc1Cl (stereo not given) | > 95.1 µM (inactive)
